Where “and” joins values, the source holds several entries; their conditions need not be identical. Equal values may be shown once. Read-outs that look alike come from different tables or passages of the source. Marks after values point to notes of the source that are not given here.
Tests used:
human TAAR1 [1] = target: T1, human TAAR1 (Homo sapiens, UniProt Q96RJ0); conditions: at 10^−4 M; cited from earlier work
T1 sequence (Q96RJ0 1-339): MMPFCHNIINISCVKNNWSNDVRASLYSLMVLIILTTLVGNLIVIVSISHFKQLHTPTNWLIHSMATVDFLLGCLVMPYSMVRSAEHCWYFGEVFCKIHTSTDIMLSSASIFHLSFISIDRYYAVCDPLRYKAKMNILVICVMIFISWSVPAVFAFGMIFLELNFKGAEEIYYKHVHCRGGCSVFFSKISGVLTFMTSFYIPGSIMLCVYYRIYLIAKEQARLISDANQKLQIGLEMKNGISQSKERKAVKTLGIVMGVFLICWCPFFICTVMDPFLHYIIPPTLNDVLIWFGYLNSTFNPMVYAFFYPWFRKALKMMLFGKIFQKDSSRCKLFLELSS

α2A-adrenoceptor = target: T2, α2A-adrenoceptor (Homo sapiens, UniProt P08913); conditions: cited from earlier work
T2 sequence (P08913 1-465): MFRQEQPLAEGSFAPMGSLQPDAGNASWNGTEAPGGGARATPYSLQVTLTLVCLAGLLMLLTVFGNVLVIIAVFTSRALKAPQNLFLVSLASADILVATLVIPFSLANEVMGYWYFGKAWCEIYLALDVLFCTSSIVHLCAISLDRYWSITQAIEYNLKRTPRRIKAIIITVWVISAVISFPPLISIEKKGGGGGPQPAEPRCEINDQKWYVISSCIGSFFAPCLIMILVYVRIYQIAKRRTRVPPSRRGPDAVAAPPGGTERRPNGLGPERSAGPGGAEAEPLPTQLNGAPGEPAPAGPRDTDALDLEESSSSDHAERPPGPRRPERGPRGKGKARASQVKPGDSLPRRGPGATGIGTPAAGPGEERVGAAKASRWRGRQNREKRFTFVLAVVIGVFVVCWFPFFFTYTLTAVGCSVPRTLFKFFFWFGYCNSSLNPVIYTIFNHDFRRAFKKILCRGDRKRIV

α2B-adrenoceptor [2] = target: T3, α2B-adrenoceptor (Homo sapiens, UniProt P18089); conditions: read-out: α2B Ant IC50; cited from earlier work
T3 sequence (P18089 1-450): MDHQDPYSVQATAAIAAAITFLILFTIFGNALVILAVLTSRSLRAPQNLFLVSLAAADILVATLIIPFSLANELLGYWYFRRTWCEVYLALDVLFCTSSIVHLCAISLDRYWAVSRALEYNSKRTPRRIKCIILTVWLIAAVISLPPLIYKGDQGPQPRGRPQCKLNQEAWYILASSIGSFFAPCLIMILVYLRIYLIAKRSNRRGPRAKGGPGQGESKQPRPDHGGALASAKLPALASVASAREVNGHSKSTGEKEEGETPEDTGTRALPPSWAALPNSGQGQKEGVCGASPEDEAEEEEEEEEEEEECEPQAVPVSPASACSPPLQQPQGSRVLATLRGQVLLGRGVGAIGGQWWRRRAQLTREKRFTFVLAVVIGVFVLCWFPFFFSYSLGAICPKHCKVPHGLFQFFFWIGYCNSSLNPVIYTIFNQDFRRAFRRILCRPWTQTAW

[3] = rat, intraperitoneal administration; cited from earlier work
α2B-adrenoceptor [4] = target: T3, α2B-adrenoceptor; assay: α2B-adrenoceptor intrinsic activity, antagonist mode (AequoScreen); type: cell-based; conditions: n.a. = no activity at 10–5 M; read-out: α2B Ant IC50
Protocol: (§1) The determination of intrinsic activity will be performed in accordance with the manufacturer’s Aequoscreen methodology—Perkin Elmer.
(§2) The cell density in the 96-well format was 5000 cells per well. Cell preparation for the assay was performed according to the manufacturer’s instructions for AequoScreen (PerkinElmer, Waltham, MA, USA). […] The cells suspension was applied onto the ligands with the injectors of the POLARstar optima reader (BMG Labtech, Ortenberg, Germany). […] The concentration and dilution series having four replicates were prepared as instructed in the AequoScreen Starter Kit Manual (PerkinElmer, Waltham, MA, USA). The wells received cell injections along with either the standard agonist or the compounds being evaluated, while the POLARstar optima reader documented the emitted light over a duration of 20 s. In the antagonist evaluation, cells were administered (50 μL) into the assay plate alongside antagonist solutions (50 μL). A single concentration of agonist (oxymetazoline) was injected (50 μL, final concentration EC80) into the preincubated (15–20 min) plate with cells and antagonist, and the emitted light was recorded for 20 s.

α2-adrenoceptor = assay: Competitive radioligand binding, [3H]clonidine, rat cerebral cortex; conditions: n.a. = no activity at 10–5 M
Protocol: The competitive radioligand-binding assay assessed affinity for α1- and α2-adrenoceptors. Experiments were carried out in the rat cerebral cortex. […] The membrane preparation and assay technique followed the previously reported protocol [10]. Radioactivity was measured using the MicroBeta2 scintillation counter (PerkinElmer, Kraków, Poland). The data was adjusted to match a single-site curve-fitting formula using Prism 8 (GraphPad Software, La Jolla, CA, USA), and the Ki values were estimated by means of the Cheng–Prusoff formula.

[5] = target: T4, 5-HT2C serotoninergic receptor (Homo sapiens, UniProt P28335); assay: 5-HT2C intrinsic activity, antagonist mode (AequoScreen calcium mobilization); type: cell-based
T4 sequence (P28335 33-458): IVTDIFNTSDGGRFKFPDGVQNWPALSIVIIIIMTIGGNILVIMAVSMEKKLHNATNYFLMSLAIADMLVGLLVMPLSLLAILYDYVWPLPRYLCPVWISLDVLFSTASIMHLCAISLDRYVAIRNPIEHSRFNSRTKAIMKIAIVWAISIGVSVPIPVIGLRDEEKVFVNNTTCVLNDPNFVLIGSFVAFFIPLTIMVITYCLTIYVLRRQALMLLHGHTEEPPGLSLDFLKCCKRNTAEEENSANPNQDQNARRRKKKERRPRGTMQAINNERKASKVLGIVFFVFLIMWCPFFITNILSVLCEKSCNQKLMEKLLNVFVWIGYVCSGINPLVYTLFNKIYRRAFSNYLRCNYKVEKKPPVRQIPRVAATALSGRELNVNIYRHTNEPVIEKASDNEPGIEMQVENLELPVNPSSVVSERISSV
Protocol: as §1, §2

α1-adrenoceptor = assay: Competitive radioligand binding, [3H]prazosin, rat cerebral cortex; conditions: n.a. = no activity at 10–5 M
Protocol: The competitive radioligand-binding assay assessed affinity for α1- and α2-adrenoceptors. Experiments were carried out in the rat cerebral cortex. […] The membrane preparation and assay technique followed the previously reported protocol. Radioactivity was measured using the MicroBeta2 scintillation counter (PerkinElmer, Kraków, Poland). The data was adjusted to match a single-site curve-fitting formula using Prism 8 (GraphPad Software, La Jolla, CA, USA), and the Ki values were estimated by means of the Cheng–Prusoff formula.

TAAR1 = conditions: cited from earlier work
[6] = tested on: platelet aggregation in rat whole blood; assay: In vitro collagen-induced platelet aggregation in rat whole blood (impedance aggregometry); type: cell-based; conditions: collagen 1.6 µg/mL
Protocol: In vitro platelet aggregation assays were conducted using freshly collected whole blood from rats, utilizing the Multiplate platelet function analyzer (Roche Diagnostics, Mannheim, Germany)—a five-channel device that measures electrical impedance, following methods described previously. Upon stimulation, platelets adhere to and aggregate on dual metal sensors within the test cuvette, causing an increase in electrical resistance, which corresponds to the number of platelets attached to the electrodes.
Blood was collected from the carotid artery of the rat into tubes coated with hirudin (S-Monovette, Sarstedt, Germany). A volume of 300 μL of the anticoagulated blood was mixed with 300 μL of prewarmed isotonic saline that contained the test compound or a vehicle control (0.1% DMSO) and incubated at 37 °C for 3 min under continuous stirring. Aggregation was triggered by adding collagen (final concentration: 1.6 µg/mL). Platelet activity was monitored for 6 min. Multiplate V2.04 software calculated the area under the curve (AUC) for each measurement to determine average platelet response.

human TAAR1 [7] = target: T1, human TAAR1; assay: TAAR1 agonist activity, Hit Hunter cAMP assay; type: cell-based
Protocol: The intrinsic activity of the TAAR1 receptor will be assessed according to the manufacturer’s protocol, using the Hit Hunter® cAMP assay by DiscoverX. This assay enables monitoring of GPCR activation in cells stably expressing TAAR1 by measuring changes in the level of the secondary messenger, cAMP. The cAMP Hunter cell lines were cultured from frozen stocks following standard procedures. Cells were plated in white-walled 384-well microplates at a total volume of 20 µL per well and incubated at 37 °C for the required period before analysis. To assess agonist activity, cells were exposed to the test compound to trigger a response. The culture medium was then removed and replaced with 15 µL of a 2:1 mixture of HBSS and 10 mM Hepes containing the cAMP XS+ antibody reagent. Sample stocks were diluted to prepare a 4× concentration in assay buffer. Subsequently, 5 µL of the 4× sample was added to each well, and the plates were incubated at either 37 °C or room temperature for 30 or 60 min. The vehicle was used at a concentration of 1%. After incubating the compounds for the required time, the assay signal was produced by adding 20 µL of the cAMP XS+ ED/CL lysis cocktail and incubating for one hour. This was followed by a three-hour incubation with 20 µL of the cAMP XS+EA reagent at room temperature. After signal development, the microplates were read using a PerkinElmer Envision Reader to detect chemiluminescence.

Danio rerio larvae [8] = assay: Fructose-induced lipid disturbance in zebrafish larvae (Oil Red O); type: in vivo; conditions: 20 µg/mL with 4% fructose, 24 h
Protocol: Zebrafish larvae 4 dpf were incubated for another 24 h with 4% fructose (final solution) in embryo medium to induce metabolic disorders. Tested solutions (compounds in E3: JP-14 at concentration of 20 μg/mL or resveratrol of 40 μg/mL) were added to fructose solution (8% in E3). The final concentration of JP-14 was 10 μg/mL or resveratrol of 20 μg/mL. The control group was incubated with E3 only. Incubation was carried out in a 6-well plate (10 larvae/well) to which 3 mL of liquid was added per well. Larvae were then collected, euthanized with tricaine, and transferred to 4% formaldehyde solution. After 24 h, larvae were washed 3 times with PBS (Sigma-Aldrich, Germany) and stained for neutral lipids, similar to previous studies. Larvae incubated for 1 h in a solution of 0.25% oil red O (ORO, Merck, Darmstadt, Germany) in 60% isopropanol (Merck, Germany). The samples were then rinsed three times with 60% isopropanol and washed 6 times with PBS, then imaged on a microscope (OPTA-TECH MN16, Warszawa, Poland) and analyzed with the ImageJ FIJI program. […] Next, the samples were centrifuged (10 min, 3000 rpm, MPW-260R, MPW Med Instruments, Warszawa, Poland), and the amount of dye in supernatant was determined spectrophotometrically (MuLTISKAN.GO, Thermo Fisher Scientific Inc. Waltham, MA, USA) at a wavelength of 495 nm.

Danio rerio larvae [9] = assay: Nile red fluorescence fat metabolism assay in zebrafish larvae; type: in vivo; conditions: 20 µg/mL, 48 h incubation of larvae
Protocol: The study was conducted based on the method described earlier by Jones et al.. Starting at 3 days after fertilization (dpf), larvae were placed into 6-well plates and incubated with the test solutions (compounds in E3: JP-14 at a concentration of 10 μg/mL or resveratrol or E3 alone) for 48 h. Resveratrol solution (20 μg/mL) was used as the reference compound. After 24 h, the solutions were replaced with new ones containing Nile red dye (9-diethylamino-5H-benzo[α]phenoxazine-5-one, Pol-aura, Poland) at a concentration of 100 ng/mL. Nile red is a selective fluorescent lipid dye used to stain lipid droplets. Incubation with the dye was therefore 24 h. Stock solution of Nile red was prepared earlier by dissolving it in acetone to a concentration of 500 μg/mL. After the incubation period, the larvae were rinsed 3 times with 0.1 M phosphate-buffered, pH 7.4 (PBS, Sigma-Aldrich, Schnelldorf, Germany) and anesthetized with cold […] tricaine solution (Sigma-Aldrich, Schnelldorf, Germany). Next, they were visualized under a fluorescence microscope (Zeiss.Discovery.V8, Zeiss, Oberkochen, Germany) and analyzed with ImageJ FIJI program (version 2.17.0).

In the case of 4-OH-guanabenz, the “TAAR1 Ago Emax (max Ago)” value (human TAAR1 [1]) is given as 34%/ (10^−4M) ^a, the α2A-adrenoceptor activation (α2A-adrenoceptor; partial agonist) is given as 30% and the EC50 (α2A-adrenoceptor; read-out: α2A Ago EC50) is given as 316 nM. The IC50 (α2B-adrenoceptor [2]) was 330 nM, the “highest (peak) level in brain” value [3] was 64.5 ng/g and the tmax in brain [3] was 15 min.

With `COc1ccc(F)c(/C=N/NC(=N)N)c1F` [8 (JP10)] the IC50 (α2B-adrenoceptor [4]) was 220 nM and the Ki (α2-adrenoceptor) was 232 ± 8.5 nM.

In the case of `CC[C@@H](CO)NC(=O)[C@@H]1C=C2c3cccc4c3c(cn4C)C[C@H]2N(C)C1` [MSE, methysergide], the EC50 [5] is reported as 1.1 ± 0.1 nM.

In the case of `Cc1ccc(N(CC2=NCCN2)c2cccc(O)c2)cc1` [PHT, phentolamine], the Ki (α1-adrenoceptor) is reported as 10.9 ± 0.8 nM.

In the case of `N=C(N)N/N=C/c1c(Cl)cccc1Cl` [guanabenz], the EC50 (TAAR1) is listed as 8.5 nM, the “increase of collagen-induced platelet aggregation” value ([6]; 10 µM) is listed as 31.81% and the “increase of collagen-induced platelet aggregation” value ([6]; 100 µM) is listed as 22.73%. The “TAAR1 Ago Emax” value (human TAAR1 [7]; % of maximal response induced by the full agonist tyramine, listed as GNB) was 60%, the EC50 (human TAAR1 [7]; cAMP accumulation, n.a. = no activity at 10–5 M, read-out: TAAR1 Ago EC50) was 300 nM and 301 nM and the Emax (human TAAR1 [7]; read-out: TAAR1 Ago Emax, % of maximal response induced by the full agonist tyramine) was 50%. The “highest (peak) level in brain” value [3] was 183.2 ng/g and the tmax in brain [3] was 60 min.

For `Oc1ccc(/C=C/c2cc(O)cc(O)c2)cc1` [resveratrol], the fructose-induced yolk enlargement (Danio rerio larvae [8]) was “Comparable effects” and the “Nile red detectable fat” value (Danio rerio larvae [9]) was “slightly stronger effect”.

— article PMC12563652 (International Journal of Molecular Sciences, 2025)
